The text below walks through data of US20220402950A1, “SUBSTITUTED BENZIMIDAZOLES AS PAD4 INHIBITORS” (BRISTOL-MYERS SQUIBB COMPANY, priority 2018, published 2022).

For one assay, the target named is human PAD4 (hPAD4) (Homo sapiens, UniProt Q9UM07). The assay is described as follows: RFMS Human PAD4 Functional Assay. Type of assay: biochemical. Particulars: hPAD4 RFMS IC50, human PAD4, rapid-fire mass spectrum (RFMS) assay; 5 nM hPAD4, 250 μM BAEE. A digest of the protocol: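 RapidFire ESI-MS quantification, normalised to a modified-citrulline internal standard, after phenyl glyoxal (final 4 mM) derivatisation of the TCA-quenched reaction. The enzyme (10 nM) sat 30 min with compound (up to 50 μM final) before 500 μM BAEE (as added) started a 90 min, 37 °C reaction. Buffer: HEPES pH 7.5, 50 μM calcium, 5 μM TPEN.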
human PAD4 (hPAD4), sequence (Q9UM07 whole entry): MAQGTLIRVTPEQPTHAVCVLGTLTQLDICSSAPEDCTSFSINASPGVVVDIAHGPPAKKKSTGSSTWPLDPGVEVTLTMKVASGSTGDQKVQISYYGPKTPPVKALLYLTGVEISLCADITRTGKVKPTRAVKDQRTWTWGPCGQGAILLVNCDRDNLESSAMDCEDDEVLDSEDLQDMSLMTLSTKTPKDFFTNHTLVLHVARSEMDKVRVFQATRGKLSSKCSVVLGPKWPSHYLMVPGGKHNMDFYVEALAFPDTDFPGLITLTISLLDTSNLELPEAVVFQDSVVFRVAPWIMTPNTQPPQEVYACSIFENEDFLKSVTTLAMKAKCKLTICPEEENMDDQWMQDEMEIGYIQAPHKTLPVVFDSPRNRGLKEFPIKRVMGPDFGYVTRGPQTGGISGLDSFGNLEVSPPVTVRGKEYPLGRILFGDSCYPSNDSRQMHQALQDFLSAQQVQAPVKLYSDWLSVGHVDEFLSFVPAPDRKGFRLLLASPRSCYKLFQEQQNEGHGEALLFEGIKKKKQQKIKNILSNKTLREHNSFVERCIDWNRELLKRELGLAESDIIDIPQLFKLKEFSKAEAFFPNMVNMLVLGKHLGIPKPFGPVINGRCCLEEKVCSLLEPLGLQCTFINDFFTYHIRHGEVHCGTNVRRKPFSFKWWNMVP
`COc1cc(C(=O)N2CC3CCC2[C@@H]3N)cc2nc(-c3cc4cccc(-c5cccc(CO)c5)c4n3CC3CC3)n(C)c12` (stereo partly drawn) [Example 136, ((7R)-7-amino-2-azabicyclo[2.2.1]heptan-2-yl)(2-(1-(cyclopropylmethyl)-7-(3-(hydroxymethyl)phenyl)-1H-indol-2-yl)-7-methoxy-1-methyl-1H-benzo[d]imidazol-5-yl)methanone] showed an IC50 of 77 nM.
With `COc1cc(C(=O)N2C[C@H]3CC[C@@H]2[C@@H]3N)cc2nc(-c3cc4cccc(-c5cn[nH]c5)c4n3CC3CC3)n(C)c12` [Example 137, ((1R,4R,7R)-7-amino-2-azabicyclo[2.2.1]heptan-2-yl)(2-(1-(cyclopropylmethyl)-7-(1H-pyrazol-4-yl)-1H-indol-2-yl)-7-methoxy-1-methyl-1H-benzo[d]imidazol-5-yl)methanone], the IC50 came out at 37 nM.
With `COc1cc(C(=O)N2C[C@H]3CC[C@@H]2[C@@H]3N)cc2nc(-c3cc4cccc(-c5cnn(C[C@@H](C)O)c5)c4n3CC3CC3)n(C)c12` [Example 138, ((1R,4R,7R)-7-amino-2-azabicyclo[2.2.1]heptan-2-yl)(2-(1-(cyclopropylmethyl)-7-(1-((R)-2-hydroxypropyl)-1H-pyrazol-4-yl)-1H-indol-2-yl)-7-methoxy-1-methyl-1H-benzo[d]imidazol-5-yl)methanone], the IC50 stood at 147 nM.
Compound `COc1cc(C(=O)N2C[C@H]3CC[C@@H]2[C@@H]3N)cc2nc(-c3cc4cccc(-c5cn(CC(C)(C)O)nc5C)c4n3CC3CC3)n(C)c12` [Example 139, ((1R,4R,7R)-7-amino-2-azabicyclo[2.2.1]heptan-2-yl)(2-(1-(cyclopropylmethyl)-7-(1-(2-hydroxy-2-methylpropyl)-3-methyl-1H-pyrazol-4-yl)-1H-indol-2-yl)-7-methoxy-1-methyl-1H-benzo[d]imidazol-5-yl)methanone] had an IC50 of 180 nM.
With `COc1cc(C(=O)N2C[C@H]3CC[C@@H]2[C@@H]3N)cc2nc(-c3cc4cccc(-c5cnn(CC(C)(C)O)c5)c4n3CC3CC3)n(C)c12` [Example 140, ((1R,4R,7R)-7-amino-2-azabicyclo[2.2.1]heptan-2-yl)(2-(1-(cyclopropylmethyl)-7-(1-(2-hydroxy-2-methylpropyl)-1H-pyrazol-4-yl)-1H-indol-2-yl)-7-methoxy-1-methyl-1H-benzo[d]imidazol-5-yl)methanone], the IC50 stood at 106 nM.
Same read-out and setting: in the case of `COc1cc(C(=O)N2C[C@H]3CC[C@@H]2[C@@H]3N)cc2nc(-c3cc4cccc(-c5cnn(CCO)c5)c4n3CC3CC3)n(C)c12` [Example 141, ((R,4R,7R)-7-amino-2-azabicyclo[2.2.1]heptan-2-yl)(2-(1-(cyclopropylmethyl)-7-(1-(2-hydroxyethyl)-1H-pyrazol-4-yl)-1H-indol-2-yl)-7-methoxy-1-methyl-1H-benzo[d]imidazol-5-yl)methanone] it was 101 nM.
For the compound `COc1cc(C(=O)N2C[C@@H]3CC[C@@H]2C3N)cc2nc(-c3cc4cccc(-c5ccccc5C#N)c4n3CC3CC3)n(C)c12` (stereo partly drawn) [Example 143, 2-(2-(5-((1R,4S)-7-amino-2-azabicyclo[2.2.1]heptane-2-carbonyl)-7-methoxy-1-methyl-1H-benzo[d]imidazol-2-yl)-1-(cyclopropylmethyl)-1H-indol-7-yl)benzonitrile], it took 181 nM to reach half-maximal inhibition (IC50).
The compound `COc1cc(C(=O)N2C[C@H]3CC[C@@H]2[C@@H]3N)cc2nc(-c3cc4cccc(Cl)c4n3CC3CC3)n(C)c12` [Example 145, ((1R,4R,7R)-7-amino-2-azabicyclo[2.2.1]heptan-2-yl)(2-(7-chloro-1-(cyclopropylmethyl)-1H-indol-2-yl)-7-methoxy-1-methyl-1H-benzo[d]imidazol-5-yl)methanone] displayed an IC50 of 123 nM.
The same measure, in the same setting: under `COc1cc(C(=O)N2C[C@H]3CC[C@@H]2[C@@H]3N)cc2nc(-c3cc4cccc(Br)c4n3CC3CC3(F)F)n(C)c12` (stereo partly drawn) [Example 146, ((1R,4R,7R)-7-amino-2-azabicyclo[2.2.1]heptan-2-yl)(2-(7-bromo-1-((2,2-difluorocyclopropyl)meth-yl)-1H-indol-2-yl)-7-methoxy-1-methyl-1H-benzo[d]imidazol-5-yl)methanone] stands 52 nM; under `COc1cc(C(=O)N2C[C@H]3CC[C@@H]2[C@@H]3N)cc2nc(-c3cc4cccc(C)c4n3CC3CC3)n(C)c12` [Example 147, ((1R,4R,7R)-7-amino-2-azabicyclo[2.2.1]heptan-2-yl)(2-(1-(cyclopropylmethyl)-7-methyl-1H-indol-2-yl)-7-methoxy-1-methyl-1H-benzo[d]imidazol-5-yl)methanone], 79 nM.
Same read-out and setting: under `COc1cc(C(=O)N2C[C@H]3CC[C@@H]2[C@@H]3N)cc2nc(-c3cc4cccc(OC)c4n3CC3CC3)n(C)c12` [Example 148, ((1R,4R,7R)-7-amino-2-azabicyclo[2.2.1]heptan-2-yl)(2-(1-(cyclopropylmethyl)-7-methoxy-1H-indol-2-yl)-7-methoxy-1-methyl-1H-benzo[d]imidazol-5-yl)methanone] stands 61 nM; under `COc1cc(C(=O)N2C[C@H]3CC[C@@H]2[C@@H]3N)cc2nc(-c3cc4cccc(-c5cnc(C#N)nc5)c4n3CC3CC3(F)F)n(C)c12` (stereo partly drawn) [Example 149, 5-(2-(5-((1R,4R,7R)-7-amino-2-azabicyclo[2.2.1]heptane-2-carbonyl)-7-methoxy-1-methyl-1H-benzo[d]imidazol-2-yl)-1-((2,2-difluorocyclopropyl)meth-yl)-1H-indol-7-yl)pyrimidine-2-carbonitrile], 168 nM; under `COc1cc(C(=O)N2C[C@H]3CC[C@@H]2[C@@H]3N)cc2nc(-c3cc4cccc(-c5cn[nH]c5)c4n3CC3CC3(F)F)n(C)c12` (stereo partly drawn) [Example 150, ((1R,4R,7R)-7-amino-2-azabicyclo[2.2.1]heptan-2-yl)(2-(1-((2,2-difluorocyclopropyl)meth-yl)-7-(1H-pyrazol-4-yl)-1H-indol-2-yl)-7-methoxy-1-methyl-1H-benzo[d]imidazol-5-yl)methanone], 46 nM.
The compound `COc1cc(C(=O)N2C[C@H]3CC[C@@H]2[C@@H]3N)cc2nc(-c3cc4cccc(-c5cn[nH]c5)c4n3CC3CC3(Cl)Cl)n(C)c12` (stereo partly drawn) [Example 151, ((1R,4R,7R)-7-amino-2-azabicyclo[2.2.1]heptan-2-yl)(2-(1-((2,2-dichlorocyclopropyl)meth-yl)-7-(1H-pyrazol-4-yl)-1H-indol-2-yl)-7-methoxy-1-methyl-1H-benzo[d]imidazol-5-yl)methanone] displayed an IC50 of 104 nM.
Turning to `COc1cc(C(=O)N2C[C@H]3CC[C@@H]2[C@@H]3N)cc2nc(-c3cc4cccc(-c5cc[nH]n5)c4n3CC3CC3(Cl)Cl)n(C)c12` (stereo partly drawn) [Example 152, ((1R,4R,7R)-7-amino-2-azabicyclo[2.2.1]heptan-2-yl)(2-(1-((2,2-dichlorocyclopropyl)meth-yl)-7-(1H-pyrazol-3-yl)-1H-indol-2-yl)-7-methoxy-1-methyl-1H-benzo[d]imidazol-5-yl)methanone], the IC50 was found to be 127 nM.
Still for that read-out and setting: under `COc1cc(C(=O)N2C[C@H]3CC[C@@H]2[C@@H]3N)cc2nc(-c3cc4cc(C)cc(-c5cn[nH]c5)c4n3CC3CC3)n(C)c12` [Example 154, ((1R,4R,7R)-7-amino-2-azabicyclo[2.2.1]heptan-2-yl)(2-(1-(cyclopropylmethyl)-5-methyl-7-(1H-pyrazol-4-yl)-1H-indol-2-yl)-7-methoxy-1-methyl-1H-benzo[d]imidazol-5-yl)methanone] stands 43 nM; under `COc1cc(C(=O)N2C[C@H]3CC[C@@H]2[C@@H]3N)cc2nc(-c3cc4cccc(-c5ccccc5C#N)c4n3CC3CC3C)n(C)c12` (stereo partly drawn) [Example 155, 2-(2-(5-((1R,4R,7R)-7-amino-2-azabicyclo[2.2.1]heptane-2-carbonyl)-7-methoxy-1-methyl-1H-benzo[d]imidazol-2-yl)-1-((2-methylcyclopropyl)meth-yl)-1H-indol-7-yl)benzonitrile], 171 nM.
With `COc1cc(C(=O)N2C[C@H]3CC[C@@H]2[C@@H]3N)cc2nc(-c3cc4cccc(-c5cn[nH]c5)c4n3CC3CC3C)n(C)c12` (stereo partly drawn) [Example 156, ((1R,4R,7R)-7-amino-2-azabicyclo[2.2.1]heptan-2-yl)(7-methoxy-1-methyl-2-(1-((2-methylcyclopropyl)meth-yl)-7-(1H-pyrazol-4-yl)-1H-indol-2-yl)-1H-benzo[d]imidazol-5-yl)methanone], 79 nM corresponded to half-maximal inhibition (IC50).
Same read-out and setting: under `COc1cc(C(=O)N2C[C@H]3CC[C@@H]2[C@@H]3N)cc2nc(-c3cc4cccc(-c5cc[nH]n5)c4n3CC3CC3C)n(C)c12` (stereo partly drawn) [Example 157, ((1R,4R,7R)-7-amino-2-azabicyclo[2.2.1]heptan-2-yl)(7-methoxy-1-methyl-2-(1-((2-methylcyclopropyl)meth-yl)-7-(1H-pyrazol-3-yl)-1H-indol-2-yl)-1H-benzo[d]imidazol-5-yl)methanone] stands 80 nM.

Staying with this assay, now noted: human PAD4, rapid-fire mass spectrum (RFMS) assay; 5 nM hPAD4, 250 μM BAEE; read-out: hPAD4 RFMS IC50.
`COc1cc(C(=O)N2C[C@H]3CC[C@@H]2[C@@H]3N)cc2nc(-c3cc4cc(C)ccc4n3CC3CC3)n(C)c12` [Example 153, ((1R,4R,7R)-7-amino-2-azabicyclo[2.2.1]heptan-2-yl)(2-(1-(cyclopropylmethyl)-5-methyl-1H-indol-2-yl)-7-methoxy-1-methyl-1H-benzo[d]imidazol-5-yl)methanone]: the IC50 came to 135 nM.
For the compound `COc1cc(C(=O)N2C[C@H]3CC[C@@H]2[C@@H]3N)cc2nc(-c3cc4cccc(NC5CCNCC5)c4n3CC3CC3)n(C)c12` [Example 158, ((1R,4R,7R)-7-amino-2-azabicyclo[2.2.1]heptan-2-yl)(2-(1-(cyclopropylmethyl)-7-(piperidin-4-ylamino)-1H-indol-2-yl)-7-methoxy-1-methyl-1H-benzo[d]imidazol-5-yl)methanone], the IC50 came out at 69 nM.

In general, IC50 refers to the midpoint of a concentration-inhibition curve.
